Data reported in patent US20080009418A1, “Selective Inhibitors” (Alchemia LTD., priority 2004, published 2008).

Experiments:
[1] = target: T1, Human melanin-concentrating hormone (MCH1) (Homo sapiens, UniProt Q99705); test: Radioligand binding, human melanin-concentrating hormone MCH1 membranes, FlashPlate, [125I]-S36057; conditions: compound at 10 μM; for A6 radioligand binding inhibition: human MCH1 membranes; for A6: inhibition of radioligand binding: [125I]-S36057, human MCH1 membranes
T1 construct: purchased Perkin Elmer Biosignal
Outline: (§1)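 Cloned human receptor membranes were coated onto FlashPlate wells and incubated with radioligand and compound (added from a 0.5 mM DMSO daughter plate) for 1 hour at room temperature in the dark. Scintillation counting gave percent inhibition, with DMSO defining total and reference ligand defining non-specific binding.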

[2] = target: T2, Human Melanocortin (MC3) (Homo sapiens, UniProt P41968); test: Radioligand binding, human melanocortin MC3 membranes, FlashPlate, [125I]-NDP-αMSH; conditions: compound at 10 μM; for A3 radioligand binding inhibition: human melanocortin MC3 membranes; for A3: inhibition of radioligand binding: human MC3 membranes
T2 construct: purchased Perkin Elmer Biosignal
Outline: as §1

[3] = target: T3, Human opioid (ORL1) (Homo sapiens, UniProt P41146); test: Radioligand binding, human opioid ORL1 membranes, FlashPlate, [125I]-Nociceptin; conditions: compound at 10 μM; for A10 radioligand binding inhibition / A10: inhibition of radioligand binding: human ORL1 membranes
T3 construct: purchased Perkin Elmer Biosignal
Outline: as §1

[4] = target: T4, Human neurokinin (NK1) (Homo sapiens, UniProt P25103); test: Radioligand binding, human neurokinin NK1 membranes, filtration, [125I]-Substance P; conditions: compound at 10 μM; for A8 radioligand binding inhibition: human neurokinin NK1 membranes; for A8: inhibition of radioligand binding: human NK1 membranes
T4 construct: purchased Perkin Elmer Biosignal
Outline: (§2)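 Percent inhibition of radioligand binding measured on recombinant human membranes: NK1 with [125I]-Substance P, KOP with [3H]-Diprenorphine. Incubation 1 h at room temperature, then harvest onto 0.3% PEI-soaked filters, cold Tris-HCl pH 7.4 washes and scintillation counting; non-specific binding from reference ligand wells.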

[5] = target: T5, Human μ-opioid (MOP) (Homo sapiens, UniProt P35372); test: Radioligand binding, human μ-opioid (MOP) membranes, FlashPlate, [3H]-Naloxone; conditions: compound at 10 μM; for A7 radioligand binding inhibition: human μ-opioid (MOP) membranes; for A7: inhibition of radioligand binding: human MOP membranes
T5 construct: purchased Perkin Elmer Biosignal
Outline: as §1

[6] = target: T6, Human Melanocortin (MC4) (Homo sapiens, UniProt P32245); test: Radioligand binding, human melanocortin MC4 membranes, FlashPlate, [125I]-NDP-αMSH; conditions: compound at 10 μM; for A4 radioligand binding inhibition: human melanocortin MC4 membranes; for A4: inhibition of radioligand binding: human MC4 membranes
T6 construct: purchased Perkin Elmer Biosignal
Outline: as §1

[7] = target: T7, Human κ-Opioid (KOP) (Homo sapiens, UniProt P41145); test: Radioligand binding, human κ-opioid (KOP) membranes, filtration, [3H]-Diprenorphine; conditions: compound at 10 μM; for A2 radioligand binding inhibition: human κ-opioid (KOP) membranes; for A2: inhibition of radioligand binding: human KOP membranes
T7 construct: purchased Perkin Elmer Biosignal
Outline: as §2

[8] = target: T8, Mouse urotensin (mUR2) (Mus musculus, UniProt Q8VIH9); test: Radioligand binding, mouse urotensin mUR2 membranes, FlashPlate, [125I]-Urotensin II; conditions: compound at 10 μM; for A11 radioligand binding inhibition: mouse urotensin mUR2 membranes; for A11: inhibition of radioligand binding: mouse mUR2 membranes
T8 construct: purchased Perkin Elmer Biosignal
T8 sequence (Q8VIH9 1-385): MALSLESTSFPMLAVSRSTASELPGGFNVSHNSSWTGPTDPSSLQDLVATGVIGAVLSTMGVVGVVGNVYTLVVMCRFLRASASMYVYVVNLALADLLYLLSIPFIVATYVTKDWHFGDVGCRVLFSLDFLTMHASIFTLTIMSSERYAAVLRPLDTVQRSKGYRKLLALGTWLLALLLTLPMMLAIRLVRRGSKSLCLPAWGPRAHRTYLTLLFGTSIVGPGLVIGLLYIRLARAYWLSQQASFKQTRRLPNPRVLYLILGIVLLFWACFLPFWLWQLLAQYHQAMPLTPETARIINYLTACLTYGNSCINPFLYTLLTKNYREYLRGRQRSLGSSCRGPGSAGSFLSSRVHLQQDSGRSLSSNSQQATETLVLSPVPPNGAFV
Outline: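 Cloned mouse urotensin (mUR2) receptor membranes from Perkin Elmer Biosignal were immobilized in FlashPlate microplates using a proprietary coating. Each well got 19.5 μl buffer, then 0.5 μl of DMSO, reference ligand, or compound. Adding 5 μl of [125I]-Urotensin II, diluted to 5× final concentration in binding buffer, started binding. Plates were sealed with TopSeal-A and incubated 1 hour at room temperature in the dark. Wells were counted for 30 seconds each on a TopCount after a 60-second delay, and percentage inhibition was calculated.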

[9] = target: T9, Human melanocortin (MC5) (Homo sapiens, UniProt P33032); test: Radioligand binding, human melanocortin MC5 membranes, FlashPlate, [125I]-NDP-αMSH; conditions: compound at 10 μM; for A5 radioligand binding inhibition: human melanocortin MC5 membranes; for A5: inhibition of radioligand binding: human MC5 membranes
T9 construct: purchased Perkin Elmer Biosignal
Outline: as §1

[10] = target: T10, Human neuropeptide Y (NPY-Y1) (Homo sapiens, UniProt P25929); test: Radioligand binding, human neuropeptide Y NPY-Y1 membranes, FlashPlate, [125I]-PYY; conditions: compound at 10 μM; for A9 radioligand binding inhibition / A9: inhibition of radioligand binding: human NPY-Y1 membranes
T10 construct: purchased Perkin Elmer Biosignal
T10 sequence (P25929 1-384): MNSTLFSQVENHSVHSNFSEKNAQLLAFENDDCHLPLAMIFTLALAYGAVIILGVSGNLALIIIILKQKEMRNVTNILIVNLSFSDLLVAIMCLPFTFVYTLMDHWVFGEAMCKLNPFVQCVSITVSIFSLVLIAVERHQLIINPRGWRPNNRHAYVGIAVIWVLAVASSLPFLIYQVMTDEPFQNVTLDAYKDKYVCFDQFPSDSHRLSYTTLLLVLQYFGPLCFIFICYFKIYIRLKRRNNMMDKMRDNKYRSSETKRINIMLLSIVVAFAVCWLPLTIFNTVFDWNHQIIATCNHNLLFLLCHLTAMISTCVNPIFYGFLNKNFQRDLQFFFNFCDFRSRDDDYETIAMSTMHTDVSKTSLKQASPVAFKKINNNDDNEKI
Outline: as §1

[11] = target: T11, Human δ-opioid (DOP) (Homo sapiens, UniProt P41143); test: Radioligand binding, human δ-opioid (DOP) membranes, FlashPlate, [3H]-Bremazocine; conditions: compound at 10 μM; for A1 radioligand binding inhibition: human δ-opioid (DOP) membranes; for A1: inhibition of radioligand binding: human DOP membranes
T11 construct: purchased Perkin Elmer Biosignal
Outline: as §1

T1 sequence (Q99705 whole entry): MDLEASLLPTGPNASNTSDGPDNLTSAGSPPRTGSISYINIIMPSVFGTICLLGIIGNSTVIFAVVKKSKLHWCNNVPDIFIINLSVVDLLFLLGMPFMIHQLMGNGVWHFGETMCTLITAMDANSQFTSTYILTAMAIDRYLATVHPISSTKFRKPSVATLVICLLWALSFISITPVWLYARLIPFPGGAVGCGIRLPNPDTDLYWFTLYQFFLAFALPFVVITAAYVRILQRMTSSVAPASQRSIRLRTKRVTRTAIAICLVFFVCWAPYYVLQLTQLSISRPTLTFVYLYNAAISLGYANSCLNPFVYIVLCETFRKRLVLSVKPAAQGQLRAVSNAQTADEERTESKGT
T4 sequence (P25103 whole entry): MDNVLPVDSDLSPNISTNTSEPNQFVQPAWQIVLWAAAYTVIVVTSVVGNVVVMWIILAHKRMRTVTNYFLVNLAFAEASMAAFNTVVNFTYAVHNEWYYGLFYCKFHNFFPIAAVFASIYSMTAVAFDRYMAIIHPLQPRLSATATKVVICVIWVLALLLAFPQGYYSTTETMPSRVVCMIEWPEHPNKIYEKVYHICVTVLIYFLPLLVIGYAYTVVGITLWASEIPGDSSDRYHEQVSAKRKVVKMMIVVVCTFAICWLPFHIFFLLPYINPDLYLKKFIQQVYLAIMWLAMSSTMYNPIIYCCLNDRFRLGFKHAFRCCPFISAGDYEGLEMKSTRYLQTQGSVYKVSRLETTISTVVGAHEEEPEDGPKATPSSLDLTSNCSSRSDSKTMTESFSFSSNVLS
T3 sequence (P41146 whole entry): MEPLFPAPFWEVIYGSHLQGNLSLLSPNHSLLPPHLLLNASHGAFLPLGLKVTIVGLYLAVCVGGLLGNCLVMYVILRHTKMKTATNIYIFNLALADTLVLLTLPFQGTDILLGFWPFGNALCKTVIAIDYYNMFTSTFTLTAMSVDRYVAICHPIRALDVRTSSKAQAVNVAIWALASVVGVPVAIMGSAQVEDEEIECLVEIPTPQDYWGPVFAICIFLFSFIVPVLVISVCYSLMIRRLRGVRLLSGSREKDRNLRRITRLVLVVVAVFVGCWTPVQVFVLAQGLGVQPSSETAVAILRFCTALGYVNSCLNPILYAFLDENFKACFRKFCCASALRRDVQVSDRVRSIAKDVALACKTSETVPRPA
T5 sequence (P35372 whole entry): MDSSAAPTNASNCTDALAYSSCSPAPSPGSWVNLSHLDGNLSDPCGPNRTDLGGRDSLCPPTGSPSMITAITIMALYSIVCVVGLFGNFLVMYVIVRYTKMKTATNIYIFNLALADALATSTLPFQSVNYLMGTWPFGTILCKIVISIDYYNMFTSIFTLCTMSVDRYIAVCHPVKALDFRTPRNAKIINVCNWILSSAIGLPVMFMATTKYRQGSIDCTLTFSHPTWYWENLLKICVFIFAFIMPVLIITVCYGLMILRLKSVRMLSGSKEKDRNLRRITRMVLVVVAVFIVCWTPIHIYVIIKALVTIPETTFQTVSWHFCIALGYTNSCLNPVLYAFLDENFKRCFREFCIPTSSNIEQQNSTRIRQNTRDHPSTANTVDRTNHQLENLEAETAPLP
T6 sequence (P32245 whole entry): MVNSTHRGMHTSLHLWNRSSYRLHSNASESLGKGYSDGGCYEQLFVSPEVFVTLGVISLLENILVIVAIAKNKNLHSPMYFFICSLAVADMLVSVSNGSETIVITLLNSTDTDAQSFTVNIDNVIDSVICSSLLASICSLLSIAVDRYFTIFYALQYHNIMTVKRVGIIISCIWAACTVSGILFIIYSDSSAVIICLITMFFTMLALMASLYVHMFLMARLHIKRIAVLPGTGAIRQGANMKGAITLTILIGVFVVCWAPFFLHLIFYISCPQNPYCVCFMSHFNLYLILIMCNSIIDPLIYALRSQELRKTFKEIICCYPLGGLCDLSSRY
T11 sequence (P41143 whole entry): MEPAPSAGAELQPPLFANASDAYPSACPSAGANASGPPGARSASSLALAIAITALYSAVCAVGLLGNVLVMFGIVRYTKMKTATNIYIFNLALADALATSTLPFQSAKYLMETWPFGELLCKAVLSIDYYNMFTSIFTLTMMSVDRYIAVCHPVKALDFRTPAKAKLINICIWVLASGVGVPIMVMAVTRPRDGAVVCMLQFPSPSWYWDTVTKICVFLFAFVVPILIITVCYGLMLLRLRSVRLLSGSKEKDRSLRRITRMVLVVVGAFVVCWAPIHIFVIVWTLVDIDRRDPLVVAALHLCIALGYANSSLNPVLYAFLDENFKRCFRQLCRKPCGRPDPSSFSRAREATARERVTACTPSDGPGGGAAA
T7 sequence (P41145 whole entry): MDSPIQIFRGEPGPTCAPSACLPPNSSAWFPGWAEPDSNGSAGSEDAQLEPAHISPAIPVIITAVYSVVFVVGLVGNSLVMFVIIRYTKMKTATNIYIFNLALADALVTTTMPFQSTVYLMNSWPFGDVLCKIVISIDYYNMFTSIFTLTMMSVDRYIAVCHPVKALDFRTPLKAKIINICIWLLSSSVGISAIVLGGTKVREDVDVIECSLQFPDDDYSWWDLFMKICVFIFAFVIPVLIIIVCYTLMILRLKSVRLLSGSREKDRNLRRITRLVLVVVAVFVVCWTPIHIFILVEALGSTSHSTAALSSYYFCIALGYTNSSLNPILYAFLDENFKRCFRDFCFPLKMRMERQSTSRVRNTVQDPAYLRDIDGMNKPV
T9 sequence (P33032 whole entry): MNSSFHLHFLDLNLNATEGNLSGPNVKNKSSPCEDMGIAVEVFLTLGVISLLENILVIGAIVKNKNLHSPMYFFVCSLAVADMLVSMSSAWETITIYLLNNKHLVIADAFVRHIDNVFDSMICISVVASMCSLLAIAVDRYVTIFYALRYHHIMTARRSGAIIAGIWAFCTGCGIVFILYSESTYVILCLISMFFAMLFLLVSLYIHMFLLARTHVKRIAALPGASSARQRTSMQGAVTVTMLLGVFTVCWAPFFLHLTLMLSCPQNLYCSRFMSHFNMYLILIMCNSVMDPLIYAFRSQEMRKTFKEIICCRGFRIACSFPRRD
T2 sequence (P41968 whole entry): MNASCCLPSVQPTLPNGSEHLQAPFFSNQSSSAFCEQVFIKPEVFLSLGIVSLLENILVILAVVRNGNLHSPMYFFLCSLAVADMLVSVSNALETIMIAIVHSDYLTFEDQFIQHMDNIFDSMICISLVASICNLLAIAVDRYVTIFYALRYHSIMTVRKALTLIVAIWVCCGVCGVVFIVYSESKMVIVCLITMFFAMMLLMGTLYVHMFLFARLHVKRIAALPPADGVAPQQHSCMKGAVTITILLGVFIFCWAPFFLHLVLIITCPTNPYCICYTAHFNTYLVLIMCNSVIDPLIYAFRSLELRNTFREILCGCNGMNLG

SMILES | A6 radioligand binding inhibition [1] | A3 radioligand binding inhibition [2] | A10 radioligand binding inhibition [3] | A8 radioligand binding inhibition [4] | A7 radioligand binding inhibition [5] | A4 radioligand binding inhibition [6] | A2 radioligand binding inhibition [7] | A11 radioligand binding inhibition [8] | A5 radioligand binding inhibition [9] | A9 radioligand binding inhibition [10] | A1 radioligand binding inhibition [11] | A8: inhibition of radioligand binding ([4]; [125I]-Substance P) | A11: inhibition of radioligand binding ([8]; [125I]-Urotensin II) | A9: inhibition of radioligand binding ([10]; [125I]-PYY) | A1: inhibition of radioligand binding ([11]; [3H]-Bremazocine) | also measured
CO[C@H]1[C@H](O)[C@@H](COCc2ccc(Cl)cc2)OC(OCc2ccc3ccccc3c2)[C@@H]1NC(=O)CNC(=N)N (stereo partly shown) [compound 78] | − (“−” indicates less than 50% inhibition at 10 μM) | − (“−” indicates less than 50% inhibition at 10 μM) | − (“−” indicates less than 50% inhibition at 10 μM) | + (“+” indicates greater than 50% inhibition at 10 μM) | − (“−” indicates less than 50% inhibition at 10 μM) | − (“−” indicates less than 50% inhibition at 10 μM) | − (“−” indicates less than 50% inhibition at 10 μM) | − (“−” indicates less than 50% inhibition at 10 μM) | + (“+” indicates greater than 50% inhibition at 10 μM) | − (“−” indicates less than 50% inhibition at 10 μM) | − (“−” indicates less than 50% inhibition at 10 μM) |  |  |  |  | 
COC[C@H]1OC(OCc2ccc(Cl)cc2)[C@H](NC(=O)CCNC(=N)N)[C@@H](OCc2ccc3ccccc3c2)[C@@H]1O (stereo partly shown) [compound 32] | − (“−” indicates less than 50% inhibition at 10 μM) | − (“−” indicates less than 50% inhibition at 10 μM) | − (“−” indicates less than 50% inhibition at 10 μM) | + (“+” indicates greater than 50% inhibition at 10 μM) | − (“−” indicates less than 50% inhibition at 10 μM) | − (“−” indicates less than 50% inhibition at 10 μM) | − (“−” indicates less than 50% inhibition at 10 μM) | − (“−” indicates less than 50% inhibition at 10 μM) | + (“+” indicates greater than 50% inhibition at 10 μM) | − (“−” indicates less than 50% inhibition at 10 μM) | + (“+” indicates greater than 50% inhibition at 10 μM) |  |  |  |  | 
NCCC(=O)N[C@H]1C(OCc2ccc3ccccc3c2)O[C@H](COCc2ccccc2)[C@@H](O)[C@@H]1OCc1ccc2ccccc2c1 (stereo partly shown) [compound 445] |  |  |  |  |  |  |  |  |  |  |  | + (“+” indicates greater than 50% inhibition at 10 μM) | − (“−” indicates less than 50% inhibition at 10 μM) | − (“−” indicates less than 50% inhibition at 10 μM) | − (“−” indicates less than 50% inhibition at 10 μM) | A6: inhibition of radioligand binding ([1]; 10 µM): + (“+” indicates greater than 50% inhibition at 10 μM); A3: inhibition of radioligand binding ([2]; [125I]-NDP-αMSH, 10 µM): + (“+” indicates greater than 50% inhibition at 10 μM); A10: inhibition of radioligand binding ([3]; [125I]-Nociceptin, 10 µM): + (“+” indicates greater than 50% inhibition at 10 μM); A7: inhibition of radioligand binding ([5]; [3H]-Naloxone, 10 µM): + (“+” indicates greater than 50% inhibition at 10 μM); A4: inhibition of radioligand binding ([6]; [125I]-NDP-αMSH, 10 µM): + (“+” indicates greater than 50% inhibition at 10 μM); A2: inhibition of radioligand binding ([7]; [3H]-Diprenorphine, 10 µM): + (“+” indicates greater than 50% inhibition at 10 μM); A5: inhibition of radioligand binding ([9]; [125I]-NDP-αMSH, 10 µM): + (“+” indicates greater than 50% inhibition at 10 μM)
CSC1OC(COCc2cccc(N)c2)C(O)C(OCc2ccccc2)C1NC(=O)c1c[nH]c2ccccc12 (stereo not shown) [compound 326] |  |  |  |  |  |  |  |  |  |  |  |  |  |  |  | A6: inhibition of radioligand binding, human melanin-concentrating hormone (MCH1) ([1]; [125I]-S36057): − (“−” indicates less than 50% inhibition at 10 μM); A3: inhibition of radioligand binding, human melanocortin (MC3) ([2]; [125I]-NDP-αMSH): − (“−” indicates less than 50% inhibition at 10 μM); A10: inhibition of radioligand binding, human opioid (ORL1) ([3]; [125I]-Nociceptin): − (“−” indicates less than 50% inhibition at 10 μM); A8: inhibition of radioligand binding, human neurokinin (NK1) ([4]; [125I]-Substance P): + (“+” indicates greater than 50% inhibition at 10 μM); A7: inhibition of radioligand binding, human μ-opioid (MOP) ([5]; [3H]-Naloxone): − (“−” indicates less than 50% inhibition at 10 μM); A4: inhibition of radioligand binding, human melanocortin (MC4) ([6]; [125I]-NDP-αMSH): − (“−” indicates less than 50% inhibition at 10 μM); A2: inhibition of radioligand binding, human κ-opioid (KOP) ([7]; [3H]-Diprenorphine): − (“−” indicates less than 50% inhibition at 10 μM); A11: inhibition of radioligand binding, mouse urotensin (mUR2) ([8]; [125I]-Urotensin II): − (“−” indicates less than 50% inhibition at 10 μM); A5: inhibition of radioligand binding, human melanocortin (MC5) ([9]; [125I]-NDP-αMSH): − (“−” indicates less than 50% inhibition at 10 μM); A9: inhibition of radioligand binding, human neuropeptide Y (NPY-Y1) ([10]; [125I]-PYY): − (“−” indicates less than 50% inhibition at 10 μM); A1: inhibition of radioligand binding, human δ-opioid (DOP) ([11]; [3H]-Bremazocine): − (“−” indicates less than 50% inhibition at 10 μM)
NCCC(=O)N[C@H]1C(OCc2ccc3ccccc3c2)O[C@H](COCc2ccc3ccccc3c2)[C@@H](O)[C@@H]1OCc1ccc2ccccc2c1 (stereo partly shown) [compound 442] |  |  |  |  |  |  |  |  |  |  |  | + (“+” indicates greater than 50% inhibition at 10 μM) | − (“−” indicates less than 50% inhibition at 10 μM) | − (“−” indicates less than 50% inhibition at 10 μM) | − (“−” indicates less than 50% inhibition at 10 μM) | A6: inhibition of radioligand binding [1]: + (“+” indicates greater than 50% inhibition at 10 μM); A3: inhibition of radioligand binding ([2]; [125I]-NDP-αMSH): + (“+” indicates greater than 50% inhibition at 10 μM); A10: inhibition of radioligand binding ([3]; [125I]-Nociceptin): + (“+” indicates greater than 50% inhibition at 10 μM); A7: inhibition of radioligand binding ([5]; [3H]-Naloxone): − (“−” indicates less than 50% inhibition at 10 μM); A4: inhibition of radioligand binding ([6]; [125I]-NDP-αMSH): + (“+” indicates greater than 50% inhibition at 10 μM); A2: inhibition of radioligand binding ([7]; [3H]-Diprenorphine): − (“−” indicates less than 50% inhibition at 10 μM); A5: inhibition of radioligand binding ([9]; [125I]-NDP-αMSH): + (“+” indicates greater than 50% inhibition at 10 μM)
